Reference: patent publication US7462347B2, “Fluorescent membrane intercalating probes” (priority 2000, dated 2008)

What was measured:
[1] = test system: YAC-1 murine lymphoma cells; assay: Probe effects on cell viability and cell growth (Maximum Tolerated Concentration); format: cell-based; settings: for Growth Inhibition / Cytotoxicity: at MTC; for Growth Inhibition: 22-24 hours culture, versus diluent alone; for Cytotoxicity: trypan blue exclusion immediately post-staining (T = 0)
Procedure: YAC-1 murine lymphoma cells were stained at a concentrations of 10^7 cells/ml with increasing concentrations of probe by rapidly admixing 2× cells suspended in Diluent C with 2× probe in Diluent C. After 5 minutes at room temperature, the staining was stopped by the addition of cell culture medium. Cells were then washed thoroughly (RPI1640+10.0% FBS) and cultured under standard conditions for 22-24 hours. Cell numbers were compared to those in a control culture treated with diluent alone.
Maximum Tolerated Concentration (MTC) of probe was defined as the highest concentration of probe at which (1) viability by trypan blue exclusion immediately post-staining was>90% and (2) YAC cell growth after 24 hours was no more than 10% different than growth of cells in diluent alone.

[2] = Solubility of FR/NIR probes in ethanol, water and Diluent C; format: physicochemical
Procedure: Effects of the various combinations of asymmetrical and symmetrical alkyl chains and methene bridges on the solubility of the compounds of the present invention were examined. Compounds 8, 25, 13, 15 and 26 were all soluble in ethanol at concentrations≧1 mM. The more lipophilic probes 15 and 26, however, required sonication for a few minutes to achieve dissolution at 1 mM in ethanol. All example probes-were poorly soluble in water. Triplicate 1:50 dilutions of stock 1 mM probe solutions were made in either ethanol or test diluent. After 30 minutes at room temperature solutions were centrifuged at 10,000×g for 10 minutes to remove any microagregates and […] aliquots were transferred to 2.0 ml of ethanol for absorbance determinations. Based on the teachings of Leung et al. and on solubility specifications found on Sigma Certificates of Analysis for the commercial diluents (diluent supernatant absorbance at 30 minutes at least 60% of ethanol supernatant absorbance after 30 minutes), a preliminary specification at least 60% of the ethanol control was set as a surrogate for solubility sufficient to achieve cell labeling with S/N ratios greater than 100 and to minimize potential problems with brightness or reproducibility of labeling. None of the probes was as soluble after 30 minutes in Diluent C as PKH26 (86%±4% of ethanol control).

[3] = Absorbance/emission spectra in ethanol; format: physicochemical; parameters: key to Excitation Max / Emission Max: wavelength in nm; settings: for Absorbance Max / Emission Max / Excitation Max: solutions in ethanol
Procedure: Referring now to Table 1 there are shown representations of the absorbance and emission properties of some example compounds of the present invention. Absorption and Fluorescence spectra were […] using 0.25 μM solutions in ethanol on a Jasco, Inc. UV-530 UV/VIS spectrophotometer and FP 750 spectrofluorometer, respectively. Approximate extinction coefficients were estimated from the absorbance scans by dividing the maximum absorbance by the nominal concentration ([…]).

SMILES	Growth Inhibition [1] [%]	Cytotoxicity [1] [%]	solubility retained in Diluent C after 30 minutes ([2]; Diluent C, 30 minutes)	maximum fluorescence ([3]; excitation light of about 635 nm) [nm]	Absorbance Max [3]	Emission Max [3]	Excitation Max [3]	emission maximum wavelength ([3]; excitation light of about 647 nm) [nm]	solubility after 30 minutes in Diluent C ([2]; 1:50 dilution of 1 mM stock, 30 minutes at room temperature)	MTC (Maximum Tolerated Concentration) ([1]; YAC-1 cells, 5 minutes staining in Diluent C) [µM]	solubility retained in Diluent C after 30 minutes ([2]; 30 min, 20 µM)	solubility ([2]; organic solvent or mixture) [µM]
CCCCCCCCCCCCCCCCCCCCCC[N+]1=C(/C=C/C=C/C=C2/N(CCCCCCCCCCCCCC)c3ccccc3C2(C)C)C(C)(C)c2ccccc21.[I-] [Compound 8]	<1	<1	approximately 65 % of solubility at T0	667	626	667	647	–	–	–	–	–
CCCCCCCCCCCCCCCCCCCCCC[N+]1=C(/C=C/C=C/C=C2/N(CCCCCCCCCCCCCC)c3ccc4ccccc4c3C2(C)C)C(C)(C)c2c1ccc1ccccc21.[I-] [Compound 13]	<1	<1	–	–	684	713	680	713	–	–	–	–
CCCCCCCCCCCCCCCCCCCCCC[N+]1=C(/C=C/C=C2/N(CCCCCCCCCCCCCC)c3ccccc3C2(C)C)C(C)(C)c2ccccc21.[I-] [PKH26, reference compound]	<1	<1	–	–	–	–	–	–	86%±4%	–	–	–
CCCCCCCCCCCCCCCCCCCCCC[N+]1=C(/C=C/C=C/C=C2/N(CCCCCCCCCCCCCC)c3ccc4ccccc4c3C2(C)C)C(C)(C)c2ccccc21 [Compound 25]	<4	<1	–	–	666	682	667	–	–	10	greater than 55 % of solubility at T0	≥ 1000
CCCCCCCCCCCCCCCCCCCCCC[N+]1=C(/C=C/C=C/C=C/C=C2/N(CCCCCCCCCCCCCC)c3ccc4ccccc4c3C2(C)C)C(C)(C)c2c1ccc1ccccc21.[I-] [Compound 15]	<5	<1	approximately 65 % of solubility at T0	–	786	814	790	–	–	–	–	–
